Test results taken from patent US20240417405A1, “Substituted Spiro Derivatives” (Janssen Pharmaceutica NV, priority 2021, published 2024).

Experiments:
[1] = tested on: KO-52 cells; test: Proliferation assay, spheroid-like growth, KO-52 (MLL wildtype control cell line); format: cell-based, human; conditions: Homo sapiens, 192 h, KO-52 control cells, 8 days, confluence as measure of spheroid size; read-out: spheroid assay_OneTime KO-52 IC50
In short: (§1)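 MOLM14 (MLL-AF9) or KO-52 (MLL wildtype) cells were grown in ultra-low attachment round-bottom wells with compound (0.3% DMSO) for 8 days at 37 °C. Spheroid confluence was imaged live on day 8, normalized to DMSO and a high-dose reference/staurosporin control, and absolute IC50 fitted with variable slope.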

[2] = tested on: MOLM14 cells; test: Proliferation assay, spheroid-like growth, MOLM14 (MLL-AF9 rearranged); format: cell-based, human; conditions: Homo sapiens, MOLM-14, 192 h, 8 days, confluence as measure of spheroid size, read-out: spheroid assay_OneTime MOLM14 IC50
In short: as §1

[3] = target: T1, menin/MLL (terbium chelate-labeled menin, FITC-MBM1 peptide) (Homo sapiens, UniProt O00255, T541A); test: Menin/MLL homogenous time-resolved fluorescence (HTRF) assay; format: binding; conditions: 30 min incubation
T1 construct: Menin (a.a 1-610-6xhis tag)
T1 sequence (O00255 with tags, fused parts or gaps T541A): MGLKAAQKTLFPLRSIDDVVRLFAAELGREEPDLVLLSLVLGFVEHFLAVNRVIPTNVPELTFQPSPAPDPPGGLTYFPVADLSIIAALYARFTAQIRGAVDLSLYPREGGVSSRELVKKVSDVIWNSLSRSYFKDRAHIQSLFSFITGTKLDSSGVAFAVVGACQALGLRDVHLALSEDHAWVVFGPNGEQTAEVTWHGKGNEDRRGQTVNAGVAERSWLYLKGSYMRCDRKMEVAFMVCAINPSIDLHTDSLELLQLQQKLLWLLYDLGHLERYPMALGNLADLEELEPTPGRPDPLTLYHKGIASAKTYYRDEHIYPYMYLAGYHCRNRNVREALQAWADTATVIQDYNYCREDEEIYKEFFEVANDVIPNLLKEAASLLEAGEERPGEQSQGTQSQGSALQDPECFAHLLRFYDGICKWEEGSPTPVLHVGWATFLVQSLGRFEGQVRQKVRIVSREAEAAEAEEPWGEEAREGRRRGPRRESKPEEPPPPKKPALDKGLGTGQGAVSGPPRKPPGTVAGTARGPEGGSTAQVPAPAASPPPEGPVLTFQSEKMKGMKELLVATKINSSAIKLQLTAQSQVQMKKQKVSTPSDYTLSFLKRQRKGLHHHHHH
In short: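 Read-out: TR-FRET ratio (FITC 520 nm / terbium 490 nm, ex. 337 nm) after 15 min with 75 nM FITC-MBM1 peptide. Test compound first sat 30 min with 200 pM Tb-menin 1-610-His, 0.5% DMSO, pH 7.5 Tris buffer. IC50 by Hill fit; values under 0.1 nM reported as 0.1 nM.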

IC50 [2] | IC50 [3] | SMILES | IC50 [1]
7 nM | 0.1 nM | CC(C)[C@H]([C@H]1C[C@@H](N2CCC3(CCO3)CC2)C1)N1CC2(CCN(c3ncnnc3Oc3ccc(F)cc3-c3cncnc3C3CC3)C2)C1 (single isomer, unassigned) [Compound 232] | 1800 nM
2 nM | 0.1 nM | CO[C@H]1[C@@H]2CN([C@H]3C[C@@H]([C@@H](C(C)C)N4CC5(CCN(c6ncnnc6Oc6ccc(F)cc6-c6cncnc6C6CC6)C5)C4)C3)C[C@@H]21 (single isomer, unassigned) [Compound 233] | 840 nM
9 nM | 0.1 nM | CC(C)[C@H]([C@H]1C[C@@H](N2C[C@H]3C[C@@H]2CO3)C1)N1CC2(CCN(c3ncnnc3Oc3ccc(F)cc3-c3cncnc3C3CC3)C2)C1 (single isomer, unassigned) [Compound 234] | 6280 nM
4 nM | 0.2 nM | COC1CN([C@H]2C[C@@H]([C@@H](C(C)C)N3CC4(CCN(c5ncnnc5Oc5ccc(F)cc5-c5cncnc5C5CC5)C4)C3)C2)CC1OC (single isomer, unassigned) [Compound 236] | 2250 nM
36 nM | 0.2 nM | COC1CN([C@H]2C[C@H]([C@@H](C(C)C)N3CC4(CCN(c5ncnnc5Oc5ccc(F)cc5-c5cncnc5C5CC5)C4)C3)C2)CC1OC (single isomer, unassigned) [Compound 237] | 7900 nM
2 nM | 0.1 nM | CC(C)[C@H]([C@H]1C[C@@H](N2CC[C@H](F)C2)C1)N1CC2(CCN(c3ncnnc3Oc3ccc(F)cc3-c3cncnc3C3CC3)C2)C1 (single isomer, unassigned) [Compound 238] | 7170 nM
16 nM | 0.3 nM | CC(C)[C@H]([C@H]1C[C@H](N2CC[C@H](F)C2)C1)N1CC2(CCN(c3ncnnc3Oc3ccc(F)cc3-c3cncnc3C3CC3)C2)C1 (single isomer, unassigned) [Compound 239] | 2810 nM
8 nM | 0.1 nM | CC(C)[C@H]([C@H]1C[C@@H](N(C)CCCS(C)(=O)=O)C1)N1CC2(CCN(c3ncnnc3Oc3ccc(F)cc3-c3cncnc3C3CC3)C2)C1 (single isomer, unassigned) [Compound 242] | 12200 nM
580 nM | 2.5 nM | CC(C)[C@H]([C@H]1C[C@@H](N2CC(C(=O)N(C)C)C2)C1)N1CC2(CCN(c3ncnnc3Oc3ccc(F)cc3-c3cncnc3C3CC3)C2)C1 (single isomer, unassigned) [Compound 243] | > 15000 nM
460 nM | 0.6 nM | CC(C)[C@@H]([C@H]1C[C@H](N2C[C@H]3COC[C@H]3C2)C1)N1CC2(CCN(c3ncnnc3Oc3ccc(F)cc3-c3cncnc3C3CC3)C2)C1 (single isomer, unassigned) [Compound 245] | 8940 nM
4 nM | 0.1 nM | CC(C)[C@H]([C@H]1C[C@@H](N2C[C@@H]3[C@H](C2)[C@H]3C(=O)N(C)C)C1)N1CC2(CCN(c3ncnnc3Oc3ccc(F)cc3-c3cncnc3C3CC3)C2)C1 (single isomer, unassigned) [Compound 248] | 1460 nM
8 nM | 0.1 nM | CC(C)[C@@H]([C@H]1C[C@@H](N2CCCCC2)C1)N1CC2(CCN(c3ncnnc3Oc3ccc(F)cc3-c3nnccc3C3CC3)C2)C1 (single isomer, unassigned) [Compound 250] | 940 nM
7 nM | 0.2 nM | CC(C)[C@@H]([C@H]1C[C@@H](N2CCC3(CCO3)CC2)C1)N1CC2(CCN(c3ncnnc3Oc3ccc(F)cc3-c3nnccc3C3CC3)C2)C1 (single isomer, unassigned) [Compound 251] | 1240 nM
270 nM | 12.7 nM | CC(C)[C@H]([C@H]1C[C@@H](N2CCC3(CCO3)CC2)C1)N1CC2(CCN(c3ncnnc3Oc3ccc(F)cc3-c3nnccc3C3CC3)C2)C1 (single isomer, unassigned) [Compound 252] | > 15000 nM
10 nM | 0.1 nM | CC(C)[C@@H]([C@H]1C[C@@H](N2CCC3(CC2)COC3)C1)N1CC2(CCN(c3ncnnc3Oc3ccc(F)cc3-c3nnccc3C3CC3)C2)C1 (single isomer, unassigned) [Compound 253] | 1620 nM
16 nM | 0.1 nM | CC(C)[C@@H]([C@H]1C[C@@H](N2CCC3(COC3)C2)C1)N1CC2(CCN(c3ncnnc3Oc3ccc(F)cc3-c3nnccc3C3CC3)C2)C1 (single isomer, unassigned) [Compound 254] | > 15000 nM
920 nM | 4.7 nM | CC(C)[C@H]([C@H]1C[C@@H](N2CCC3(COC3)C2)C1)N1CC2(CCN(c3ncnnc3Oc3ccc(F)cc3-c3nnccc3C3CC3)C2)C1 (single isomer, unassigned) [Compound 255] | > 15000 nM
5 nM | 0.2 nM | CO[C@H]1CCCN([C@H]2C[C@@H]([C@H](C(C)C)N3CC4(CCN(c5ncnnc5Oc5ccc(F)cc5-c5nnccc5C5CC5)C4)C3)C2)C1 (single isomer, unassigned) [Compound 256] | > 15000 nM
6 nM | 0.1 nM | CO[C@@H]1CCN([C@H]2C[C@@H]([C@H](C(C)C)N3CC4(CCN(c5ncnnc5Oc5ccc(F)cc5-c5nnccc5C5CC5)C4)C3)C2)C1 (single isomer, unassigned) [Compound 257] | > 15000 nM
4 nM | 0.1 nM | CC(C)[C@@H]([C@H]1C[C@@H](N2C[C@H]3COC[C@H]3C2)C1)N1CC2(CCN(c3ncnnc3Oc3ccc(F)cc3-c3nnccc3C3CC3)C2)C1 (single isomer, unassigned) [Compound 258] | 490 nM
94 nM | 0.4 nM | CC(C)[C@@H]([C@H]1C[C@H](N2C[C@H]3COC[C@H]3C2)C1)N1CC2(CCN(c3ncnnc3Oc3ccc(F)cc3-c3nnccc3C3CC3)C2)C1 (single isomer, unassigned) [Compound 259] | 4760 nM
6 nM | 0.1 nM | COC1CN([C@H]2C[C@@H]([C@H](C(C)C)N3CC4(CCN(c5ncnnc5Oc5ccc(F)cc5-c5nnccc5C5CC5)C4)C3)C2)C1 (single isomer, unassigned) [Compound 260] | 3250 nM
19 nM | 0.16 nM | CC(C)[C@@H]([C@H]1C[C@@H](N(C)C)C1)N1CC2(CCN(c3ncnnc3Oc3ccc(F)cc3-c3nnccc3C3CC3)C2)C1 (single isomer, unassigned) [Compound 261a] | > 15000 nM
83 nM | 0.3 nM | CC(C)[C@@H]([C@H]1C[C@H](N(C)C)C1)N1CC2(CCN(c3ncnnc3Oc3ccc(F)cc3-c3nnccc3C3CC3)C2)C1 (single isomer, unassigned) [Compound 261b] | 3070 nM
5 nM | 0.1 nM | CC(C)[C@@H]([C@H]1C[C@@H](N2CC[C@@H](F)C2)C1)N1CC2(CCN(c3ncnnc3Oc3ccc(F)cc3-c3nnccc3C3CC3)C2)C1 (single isomer, unassigned) [Compound 262] | 1280 nM
170 nM | 0.8 nM | COC1(C)CN([C@H]2C[C@H]([C@H](C(C)C)N3CC4(CCN(c5ncnnc5Oc5ccc(F)cc5-c5nnccc5C5CC5)C4)C3)C2)C1 (single isomer, unassigned) [Compound 264] | 14400 nM
260 nM | 2.4 nM | CC(C)[C@H]([C@H]1C[C@@H](N2CCC3(CCCO3)C2)C1)N1CC2(CCN(c3ncnnc3Oc3ccc(F)cc3-c3nnccc3C3CC3)C2)C1 (single isomer, unassigned) [Compound 271] | > 15000 nM
110 nM | 0.3 nM | CC(C)[C@@H]([C@H]1C[C@H](NC2CC2)C1)N1CC2(CCN(c3ncnnc3Oc3ccc(F)cc3-c3nnccc3C3CC3)C2)C1 (single isomer, unassigned) [Compound 273] | > 15000 nM
